Assay results taken from PubChem BioAssay AID180 (DTP/NCI, 2004).

Test system: BDF1 mice, Adenocarcinoma 755 s.c., tumor weight T/C
Experiment: NCI In Vivo Anticancer Drug Screen. Data for tumor model Adenocarcinoma 755 (subcutaneous) in B6D2F1 (BDF1) mice
Settings: endpoint: mean tumor weight, schedule: Q01DX011 (ip), vehicle: methylcellulose (MC), higher = larger tumour
Outline: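 Tumor-bearing mice receive test compound while controls get vehicle alone. Antitumor effect is scored from survival or tumor dimensions as a T/C quotient.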

## O=C(Nc1ccc(C2=NCCN2)cc1)c1cc(Cl)c(C(=O)Nc2ccc(C3=NCCN3)cc2)cc1Cl
dose: 15.0 mg/kg/injection
  T/C: 105 % of control
dose: 30.0 mg/kg/injection
  T/C: 68 % of control
